Laboratory results reported in patent EP1247803A2, “Indolinone compounds suitable for modulation of protein kinases” (Sugen, Inc., priority 1996, dated 1998).

Tests used:
MET = MET biochemical kinase assay; set-up: species or system human; concentration or dose not given beside the values
In short: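 MET from cell lysates captured on ELISA plates via rabbit anti-MET cytoplasmic-domain antibody; compounds added and kinase reaction run in ATP and divalent-metal buffer. Receptor phosphotyrosine detected with HRP-conjugated anti-phosphotyrosine antibody and TMB colorimetry.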

EGFR = molecular target: T1, EGFR (Homo sapiens, UniProt P00533); test: EGFR ELISA assay (in vitro kinase activity, EGFR captured from A431 cell lysate); type: biochemical; set-up: concentration or dose not given beside the values
T1 construct: Add 7 ug A431 cell lysate per well (EGFR source); endogenous in cells; host or cells: A431
In short: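 EGFR from A431 lysate was captured on anti-EGFR antibody-coated plates and preincubated with compounds for 30 min. Autophosphorylation ran 5 min with 3 uM ATP and 5 mM MnCl2 (final), stopped with 20 mM EDTA. Phosphotyrosine was detected by anti-pTyr ELISA with ABTS/H2O2, read at 410 nm.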

T1 sequence (P00533 25-1210): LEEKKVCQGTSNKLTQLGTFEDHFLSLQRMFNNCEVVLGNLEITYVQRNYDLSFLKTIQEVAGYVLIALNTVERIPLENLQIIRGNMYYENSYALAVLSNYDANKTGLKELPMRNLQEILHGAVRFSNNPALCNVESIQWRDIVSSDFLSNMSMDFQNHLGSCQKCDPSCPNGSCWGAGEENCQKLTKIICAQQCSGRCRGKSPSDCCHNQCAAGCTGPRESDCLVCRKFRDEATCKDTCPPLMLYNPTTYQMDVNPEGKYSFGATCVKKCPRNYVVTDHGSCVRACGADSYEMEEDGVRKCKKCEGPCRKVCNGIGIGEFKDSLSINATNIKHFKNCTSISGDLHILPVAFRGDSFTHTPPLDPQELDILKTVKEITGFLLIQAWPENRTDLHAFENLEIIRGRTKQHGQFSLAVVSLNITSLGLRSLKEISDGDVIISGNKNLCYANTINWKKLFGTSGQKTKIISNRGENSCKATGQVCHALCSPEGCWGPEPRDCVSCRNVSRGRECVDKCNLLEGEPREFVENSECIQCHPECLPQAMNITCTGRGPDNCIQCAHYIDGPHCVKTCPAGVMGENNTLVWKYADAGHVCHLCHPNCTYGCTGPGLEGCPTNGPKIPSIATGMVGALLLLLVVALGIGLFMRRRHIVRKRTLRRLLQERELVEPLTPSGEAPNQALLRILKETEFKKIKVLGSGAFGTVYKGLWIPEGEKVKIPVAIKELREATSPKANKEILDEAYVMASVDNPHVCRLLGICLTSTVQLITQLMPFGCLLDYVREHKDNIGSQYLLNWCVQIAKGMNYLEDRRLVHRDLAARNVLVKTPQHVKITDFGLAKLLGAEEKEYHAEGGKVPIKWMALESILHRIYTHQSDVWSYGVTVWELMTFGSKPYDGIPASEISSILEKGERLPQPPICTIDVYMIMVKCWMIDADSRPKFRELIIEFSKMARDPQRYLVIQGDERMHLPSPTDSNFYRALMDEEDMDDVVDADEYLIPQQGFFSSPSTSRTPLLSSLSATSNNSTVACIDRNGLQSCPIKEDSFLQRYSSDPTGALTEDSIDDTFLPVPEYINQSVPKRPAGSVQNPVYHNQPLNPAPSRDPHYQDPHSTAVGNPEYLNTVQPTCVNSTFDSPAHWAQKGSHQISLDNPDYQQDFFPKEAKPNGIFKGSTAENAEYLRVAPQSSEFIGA

| SMILES | Met Kinase % Inhibition (MET) [%] | Biochem EGFR %Inhibition (EGFR) [%] |
| --- | --- | --- |
| O=C1Nc2ccc(S(=O)(=O)N3CCOCC3)cc2C1=Cc1cc(O)c2c(c1O)CCCC2 [10726/F07] | 96.1 | 76.2 |
| CCOC(=O)c1[nH]c(C=C2C(=O)Nc3ccc(S(=O)(=O)NC)cc32)c(C(=O)OC)c1C [10726/D03] | 52.1 | -5.4 |
| O=C1Nc2c(Br)cc(Br)cc2C1=Cc1cc2c(cc1Cl)OCO2 [10727/A06] | 32.7 | -6.3 |
| Cc1cc(C=C2C(=O)Nc3ccc(CCCl)cc32)cc(C(C)(C)C)c1O [10726/G04] | 72.8 | 60.6 |
| Cc1c(Br)ccc2c1C(=C1C(=O)Nc3ccccc31)C(=O)N2 [10726/C09] | 48.5 | -14.3 |
| O=C1Nc2c(Br)cc(Br)cc2C1=Cc1ccccc1Sc1ccc(Cl)cc1 [10727/A05] | 29.0 | -3.0 |
| CNS(=O)(=O)c1ccc2c(c1)C(=Cc1ccc(OC)cc1)C(=O)N2 [10726/D11] | 9.6 | -6.3 |
| CCc1cc(CC)c(C=C2C(=O)Nc3ccc(I)cc32)[nH]1 [10727/B03] | 84.5 | -2.8 |
| Cc1cn(C)cc1C=C1C(=O)Nc2ccc(S(=O)(=O)Nc3ccc(C(F)(F)F)cc3)cc21 [10726/E06] | -7.4 | -20.6 |
| N#Cc1cccc(C=C2C(=O)Nc3ccc(I)cc32)c1 [10727/B08] | 90.7 | 47.4 |
| Cc1cn(C)cc1C=C1C(=O)Nc2ccc(CCCl)cc21 [10726/G06] | 19.9 | -37.5 |
| COc1ccc(C=C2C(=O)Nc3ccc(S(=O)(=O)Nc4ccc(C(F)(F)F)cc4)cc32)cc1 [10726/E11] | 34.5 | -14.1 |
| COc1cccc(O)c1C=C1C(=O)Nc2ccc(CCCl)cc21 [10717/G10] | 30.9 | 2.4 |
| O=C1Nc2ccc(CCCl)cc2C1=Cc1cc(O)c2c(c1O)CCCC2 [10726/G07] | 94.8 | 54.4 |
| CCc1cc(CC)c(C=C2C(=O)Nc3ccc(S(=O)(=O)NC)cc32)[nH]1 [10727/D03] | 24.0 | 39.4 |
| N#Cc1ccc(C=C2C(=O)Nc3c(Br)cc(Br)cc32)cc1 [10727/A09] | 44.2 | 12.7 |
| Cc1c(Br)ccc2c1C(=Cc1cc(Cl)cc(Br)c1O)C(=O)N2 [10727/C04] | 81.7 | 27.6 |
| O=C1Nc2ccccc2C1=C1C(=O)Nc2ccc(S(=O)(=O)N3CCOCC3)cc21 [10726/F09] | 66.8 | -22.8 |
| O=C1Nc2ccc(I)cc2C1=Cc1cc(O)ccc1O [10727/B10] | 99.2 | 94.0 |
| CCN(CC)c1ccc(C=C2C(=O)Nc3c(Br)cc(Br)cc32)cc1 [10727/A02] | 52.0 | 3.2 |

| SMILES | Met Kinase % Inhibition (MET) [%] | Biochem EGFR %Inhibition (EGFR) [%] |
| --- | --- | --- |
| Cc1cn(C)cc1C=C1C(=O)Nc2ccc(S(=O)(=O)N3CCOCC3)cc21 [10726/F06] | 16.2 | -24.1 |
| CCc1ccc(C=C2C(=O)Nc3ccc(S(=O)(=O)N4CCOCC4)cc32)s1 [10726/F10] | 51.4 | -17.4 |
| O=C1Nc2ccc(S(=O)(=O)Nc3ccc(C(F)(F)F)cc3)cc2C1=Cc1cc(O)c2c(c1O)CCCC2 [10726/E07] | 84.0 | 20.5 |
| CCc1ccc(C=C2C(=O)Nc3ccc(S(=O)(=O)Nc4ccc(C(F)(F)F)cc4)cc32)s1 [10726/E10] | 41.5 | -9.0 |
| CNS(=O)(=O)c1ccc2c(c1)C(=Cc1cc(O)c3c(c1O)CCCC3)C(=O)N2 [10726/D07] | 84.6 | 18.5 |
| Cc1cc(C=C2C(=O)Nc3ccc(S(=O)(=O)N4CCOCC4)cc32)cc(C(C)(C)C)c1O [10726/F04] | 93.5 | 33.4 |
| Cc1cc(C=C2C(=O)Nc3ccc(S(=O)(=O)Nc4ccc(C(F)(F)F)cc4)cc32)cc(C(C)(C)C)c1O [10726/E04] | 85.5 | 53.0 |
| O=C1Nc2ccc(S(=O)(=O)Nc3ccc(C(F)(F)F)cc3)cc2C1=Cc1ccc(Br)o1 [10726/E05] | 71.0 | 5.5 |
| CCc1ccc(C=C2C(=O)Nc3ccc(Br)c(C)c32)s1 [10726/C10] | 36.7 | 2.8 |
| Cc1c(Br)ccc2c1C(=C1C(=O)Nc3ccc(F)cc31)C(=O)N2 [10726/C08] | 46.8 | 7.5 |
| O=C1Nc2ccc(F)cc2C1=C1C(=O)Nc2ccc(CCCl)cc21 [10726/G08] | 39.1 | -2.7 |
| O=C1Nc2ccc(CCCl)cc2C1=Cc1ccc(Br)o1 [10726/G05] | 81.1 | 5.1 |
| COc1cccc(C=C2C(=O)Nc3ccc(I)cc32)c1OC [10727/B11] | 69.8 | 6.9 |
| CNS(=O)(=O)c1ccc2c(c1)C(=Cc1ccc(Br)o1)C(=O)N2 [10726/D05] | 51.2 | -8.1 |
| CCc1ccc(C=C2C(=O)Nc3ccc(S(=O)(=O)NC)cc32)s1 [10726/D10] | 35.3 | -6.5 |
| O=C1Nc2c(Br)cc(Br)cc2C1=Cc1cc(O)ccc1O [10727/A10] | 95.2 | 89.0 |
| Cc1c(Br)ccc2c1C(=Cc1ccccc1Sc1ccc(Cl)cc1)C(=O)N2 [10727/C05] | 8.9 | 11.8 |
| O=C1Nc2ccccc2C1=C1C(=O)Nc2ccc(CCCl)cc21 [10726/G09] | 42.4 | 3.3 |
| CCN(CC)c1ccc(C=C2C(=O)Nc3ccc(S(=O)(=O)NC)cc32)cc1 [10727/D02] | 51.6 | 22.6 |
| Cc1ccc(C=C2C(=O)Nc3ccc(CCCl)cc32)s1 [10717/G07] | 7.5 | 13.1 |

| SMILES | Met Kinase % Inhibition (MET) [%] | Biochem EGFR %Inhibition (EGFR) [%] |
| --- | --- | --- |
| O=C1Nc2ccc(I)cc2C1=Cc1cc2c(cc1Cl)OCO2 [10727/B06] | 91.0 | 40.7 |
| O=C1Nc2ccc(I)cc2C1=Cc1cc(Cl)cc(Br)c1O [10727/B04] | 87.1 | 47.4 |
| COc1ccc(C=C2C(=O)Nc3ccc(CCCl)cc32)cc1 [10726/G11] | 11.8 | 1.3 |
| CCc1cc(CC)c(C=C2C(=O)Nc3c(Br)cc(Br)cc32)[nH]1 [10727/A03] | 40.7 | -19.2 |
| O=C1Nc2ccc(CCCl)cc2C1=Cc1c[nH]c2ccccc12 [10717/G06] | 34.0 | -3.4 |
| N#Cc1ccc(C=C2C(=O)Nc3ccc(I)cc32)cc1 [10727/B09] | 81.9 | 31.7 |
| CCOC(=O)c1[nH]c(C=C2C(=O)Nc3ccc(S(=O)(=O)Nc4ccc(C(F)(F)F)cc4)cc32)c(C(=O)OC)c1C [10726/E03] | 62.4 | -15.9 |
| Cc1c(Br)ccc2c1C(=Cc1cc(O)ccc1O)C(=O)N2 [10727/C10] | 94.4 | 85.3 |
| CNS(=O)(=O)c1ccc2c(c1)C(=Cc1cc(C)c(O)c(C(C)(C)C)c1)C(=O)N2 [10726/D04] | 62.9 | -20.1 |
| O=C1Nc2c(Br)cc(Br)cc2C1=Cc1c[nH]c2ccccc12 [10717/A06] | 31.7 | -7.8 |
| O=C1Nc2c(Br)cc(Br)cc2C1=Cc1coc2ccccc2c1=O [10727/A07] | 61.1 | -3.7 |
| CCOC(=O)c1[nH]c(C=C2C(=O)Nc3ccc(S(=O)(=O)N4CCOCC4)cc32)c(C(=O)OC)c1C [10726/F03] | 54.1 | -17.4 |
| O=C1Nc2ccc(F)cc2C1=C1C(=O)Nc2ccc(S(=O)(=O)N3CCOCC3)cc21 [10726/F08] | 67.3 | -21.5 |
| COc1cccc(C=C2C(=O)Nc3ccc(Br)c(C)c32)c1OC [10727/C11] | 14.5 | -15.6 |
| COc1cccc(C=C2C(=O)Nc3c(Br)cc(Br)cc32)c1OC [10727/A11] | 16.5 | 6.2 |
| CCN(CC)c1ccc(C=C2C(=O)Nc3ccc(Br)c(C)c32)cc1 [10727/C02] | 73.8 | -28.5 |
| O=C1Nc2ccccc2C1=C1C(=O)Nc2ccc(S(=O)(=O)Nc3ccc(C(F)(F)F)cc3)cc21 [10726/E09] | 50.3 | 10.0 |
| Cn1cccc1C=C1C(=O)Nc2ccc(CCCl)cc21 [10717/G04] | 10.9 | 6.0 |
| O=C1Nc2ccc(CCCl)cc2C1=Cc1ccc(Br)cc1 [10717/G08] | 10.9 | 36.4 |
| Cc1c(Br)ccc2c1C(=Cc1cc3c(cc1Cl)OCO3)C(=O)N2 [10727/C06] | 45.2 | 5.6 |
